Laboratory results taken from article PMC3724763 (Journal of medicinal chemistry, 2013).

Molecular target: T1, JHDM1A (Homo sapiens, UniProt Q9Y2K7)
T1 sequence (Q9Y2K7 1-517): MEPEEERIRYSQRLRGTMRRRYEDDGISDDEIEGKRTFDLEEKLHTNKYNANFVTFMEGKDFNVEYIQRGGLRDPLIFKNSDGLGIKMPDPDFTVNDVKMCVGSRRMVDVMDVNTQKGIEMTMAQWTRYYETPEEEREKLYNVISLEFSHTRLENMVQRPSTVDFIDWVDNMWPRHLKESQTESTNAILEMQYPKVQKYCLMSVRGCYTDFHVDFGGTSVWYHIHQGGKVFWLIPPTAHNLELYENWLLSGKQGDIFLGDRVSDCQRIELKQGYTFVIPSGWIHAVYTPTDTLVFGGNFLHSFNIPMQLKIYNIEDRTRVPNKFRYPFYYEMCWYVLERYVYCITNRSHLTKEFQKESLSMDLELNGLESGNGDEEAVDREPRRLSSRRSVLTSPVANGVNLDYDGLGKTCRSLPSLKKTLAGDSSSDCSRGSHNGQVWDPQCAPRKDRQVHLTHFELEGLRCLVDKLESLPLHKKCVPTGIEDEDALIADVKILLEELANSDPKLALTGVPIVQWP
Experiment: FP competitive binding assay with tracer 3 and JHDM1A
Details: 60 nM JHDM1A, 1 nM 3, Ni2+ buffer, 4 h

| SMILES | displacement of tracer 3 from JHDM1A |
| --- | --- |
| O=C(O)CCC(=O)C(=O)O [αKG, α-ketoglutarate] | can displace 3 from JHDM1A |
| O=C(O)CNC(=O)C(=O)O [NOG, N-oxalyl glycine] | can displace 3 from JHDM1A |
| O=C(O)/C=C/C(=O)N(O)CCCCNCc1ccc(COC(=O)Nc2cccc3ccccc23)cc1 [Compound 2, methylstat acid] | can displace 3 from JHDM1A |
